The subject of experiment [1] is ethanol ulcer in the gland gastric region. The experiment can be described thus: Ethanol ulcer. The experiment is classed as in vivo. As to conditions: rats fasted 24 hours, drug oral, 99.5% ethanol 1 ml/rat after one hour, size of ulcer one hour later; for Suppression: dose not given. The protocol: Ethanol Ulcer Rats were fasted for 24 hours and orally administered with a drug. After one hour, 99.5% ethanol (1 ml/rat) was fed through oral administration. After one hour of ethanol administration, the abdomens of the rats were dissected and the size of ulcer in the gland gastric region was measured for each rat.

A further experiment has as its system Helicobacter pylori. The experiment can be described thus: Anti-Helicobacter-pylori action (agar plate dilution MIC). The experiment is classed as cell-based. As to conditions: clinically isolated 10 bacterial strains, agar plate dilution method. The protocol:
Anti-Helicobacter-pylori Action
Using clinically isolated 10 bacterial strains, the minimum inhibitory concentration (MIC) was measured according to the agar plate dilution method.

Experiment [2] relates to HCl-ethanol ulcer in the gland gastric region. The experiment in a line: HCl-ethanol ulcer. The experiment is classed as in vivo, Rats. The protocol:
HCl-ethanol Ulcer Rats were fasted for 24 hours and orally administered with a drug. After one hour, 60% ethanol containing 0.15 N hydrochloric acid (1 ml/rat) was perorally administered to each rat. One hour after ethanol administration, the size of ulcer in the gland gastric region was measured for evaluation of anti-ulcer effects of the drug.

Where [3] appears, read: Helicobacter pylori, read-out: MIC.
[4] abbreviates: rats fasted 24 hours, drug oral, 60% ethanol containing 0.15 N hydrochloric acid 1 ml/rat after one hour, size of ulcer one hour later, dose not given.

In brackets after ≈: the same amount, converted by molar mass. Where two headings read alike, the source gives them in different places.

For `O=S(=O)(c1ccc(Cl)cc1)N(CCN1CCCC1)c1ccccc1NCCOc1ccc(Cl)cc1` [Example 8, N-(4-Chlorobenzenesulfonyl)-N-[2-(1-pyrolidino)ethyl]-N′-[2-(4-chlorophenoxy)ethyl]-o-phenylenediamine], the Suppression in experiment [1] stood at 86%. In the experiment with Helicobacter pylori, the minimal inhibitory concentration (MIC) (commonly the smallest concentration in the dilution series that meets the test's criterion for growth inhibition) lay in the range of 1.56 to 6.25 µg/mL.

In the case of `O=S(=O)(c1ccc(Cl)cc1)N(CCO)c1ccccc1NCCOc1ccc(Cl)cc1` [Example 9, N-(4-Chlorobenzenesulfonyl)-N-(2-hydroxyethyl]-N′-[2-(4-chlorophenoxy)ethyl]-o-phenylenediamine], the Suppression in experiment [1] is 85%. Besides, the minimal inhibitory concentration (MIC) in the experiment with Helicobacter pylori (setting [3]) is 25 to 50 µg/mL (≈ 51.9 to 104 µM).

On to `O=S(=O)(c1ccc(Cl)cc1)N(CCCc1ccncc1)c1ccccc1NCCOc1ccc(Cl)cc1` [Example 10, N-(4-Chlorobenzenesulfonyl)-N-[3-(4-pyridyl)propyl]-N′-[2-(4-chlorophenoxy)ethyl]-o-phenylenediamine], for which the Suppression in experiment [1] was found to be 82%. Moreover, in the experiment on Helicobacter pylori (setting [3]), the MIC is 25 to 100 µg/mL (≈ 44.9 to 180 µM).

On to `COc1ccc(S(=O)(=O)N(CCN)c2ccccc2NCCOc2ccc(Cl)cc2)cc1` [Example 11, N-(2-Aminoethyl)-N-(4-methoxybenzenesulfonyl)-N′-[2-(4-chlorophenoxy)ethyl]-o-phenylenediamine], for which, in experiment [1], the Suppression was 96%.

Turning to `CNC(=NC#N)NCCOCCN(c1ccccc1NCCOc1ccc(Cl)cc1)S(=O)(=O)c1ccc(Cl)cc1` [Example 14, N-(4-Chlorobenzenesulfonyl)-N-[2-(2-cyano-3-methylguanidino)ethoxyethyl]-N′-[2-(4-chlorophenoxy)ethyl]-o-phenylenediamine], the MIC in the experiment on Helicobacter pylori (setting [3]) is 6.25 to 50 µg/mL (≈ 10.3 to 82.6 µM).

Compound `O=C(NCCOCCN(c1ccccc1NCCOc1ccc(Cl)cc1)S(=O)(=O)c1ccc(Cl)cc1)NC1CCCCC1` [Example 17, N-(4-Chlorobenzenesulfonyl)-N-[2-(2-cyclohexylureido)ethoxyethyl]-N′-[2-(4-chlorophenoxy)ethyl]-o-phenylenediamine] came in with an MIC against Helicobacter pylori of 25 to 50 µg/mL.

`NCCOCCN(c1ccccc1NCCOc1ccc(Cl)cc1)S(=O)(=O)c1ccccc1` [Example 33] registered a Suppression in experiment [1] of 83%.

For the compound `Cc1ccc(S(=O)(=O)N(CCOCCN)c2ccccc2NCCOc2ccc(Cl)cc2)cc1` [Example 35, N-[2-(2-Amino)ethoxyethyl]-N-(p-toluenesulfonyl)-N′-[2-(4-chlorophenoxy)ethyl]-o-phenylenediamine], in experiment [1], the Suppression was determined as 99%.

Consider `Cc1ccc(S(=O)(=O)N(CCN(C)C)c2ccccc2NCCOc2ccc(Cl)cc2)cc1.Cl` [Example 36, N-[2-(Dimethylamino)ethyl]-N-(p-toluenesulfonyl)-N′-[2-(4-chlorophenoxy)ethyl]-o-phenylenediamine Hydrochloride], for which, in experiment [2] (setting [4]), the Suppression was 92%.

With `CN(C)CCN(c1ccccc1NCCOc1ccc(Cl)cc1)S(=O)(=O)c1cccc2ccccc12.Cl` [Example 38, N-[2-(Dimethylamino)ethyl]-N-(1-naphthalenesulfonyl)-N′-[2-(4-chlorophenoxy)ethyl]-o-phenylenediamine Hydrochloride], in experiment [2] (setting [4]), the Suppression was 93%.

`NCCOCCN(c1ccccc1NCCOc1ccc(Cl)cc1)S(=O)(=O)c1ccc(F)cc1` [Example 41, N-[2-(2-Amino)ethoxyethyl]-N-(4-fluorobenzenesulfonyl)-N′-[2-(4-chlorophenoxy)ethyl]-o-phenylenediamine]: the Suppression in experiment [1] was 93%.

In turn, `CN(C)CCN(c1ccccc1NCCOc1ccc(Cl)cc1)S(=O)(=O)c1ccc(Br)cc1.Cl` [Example 44, N-[2-(Dimethylamino)ethyl]-N-(4-bromobenzenesulfonyl)-N′-[2-(4-chlorophenoxy)ethyl]-o-phenylenediamine.HCl] returned a Suppression in experiment [2] (rat, in vivo, po) of 87%.

Turning to `NCCOCCN(c1ccccc1NCCOc1ccc(F)cc1)S(=O)(=O)c1ccc(Cl)cc1` [Example 47, N-[2-(2-Amino)ethoxyethyl]-N-(4-chlorobenzenesulfonyl)-N′-[2-(4-fluorophenoxy)ethyl]-o-phenylenediamine], the Suppression in experiment [1] was found to be 100%.

In the case of `CN(C)CCN(c1ccccc1NCCOc1ccc(F)cc1)S(=O)(=O)c1ccc(Cl)cc1.Cl` [Example 48, N-[2-(Dimethylamino)ethyl]-N-(4-chlorobenzenesulfonyl)-N′-[2-(4-fluorophenoxy)ethyl]-o-phenylenediamine Hydrochloride], in experiment [2] (setting [4]), the Suppression worked out at 85%.

`CN(C)CCN(c1ccccc1NCCOc1ccc(Cl)cc1)S(=O)(=O)c1cccc(Cl)c1.Cl` [Example 52, N-[2-(Dimethylamino)ethyl]-N-(3-chlorobenzenesulfonyl)-N′-[2-(4-chlorophenoxy)ethyl]-o-phenylenediamine Hydrochloride] returned a Suppression in experiment [2] (setting [4]) of 87%.

Regarding `NCCN(c1ccccc1NCCNc1ccc(Cl)cc1)S(=O)(=O)c1ccc(Cl)cc1` [Example 60, N-(2-Aminoethyl)-N-(4-chlorobenzenesulfonyl)-N′-[2-(4-chlorophenylamino)ethyl]-o-phenylenediamine], the MIC in the experiment on Helicobacter pylori (setting [3]) is 6.25 to 25 µg/mL (≈ 13 to 52.1 µM).

Regarding `NCCN(c1ccccc1NCC=Cc1ccc(Cl)cc1)S(=O)(=O)c1ccc(Cl)cc1` [Example 62, N-(2-Aminoethyl)-N-(4-chlorobenzenesulfonyl)-N′-(4-chlorocinnamyl)-o-phenylenediamine], in the experiment with Helicobacter pylori (setting [3]), the MIC was in the range of 1.56 to 12.5 µg/mL (≈ 3.27 to 26.2 µM).

`NCCN(c1ccccc1NCCSc1ccc(Cl)cc1)S(=O)(=O)c1ccc(Cl)cc1` [Example 65, N-(2-Aminoethyl)-N-(4-chlorobenzenesulfonyl)-N′-[2-(4-Chlorophenylthio)ethyl]-o-phenylenediamine]: in the experiment on Helicobacter pylori (setting [3]), the MIC is 6.25 to 25 µg/mL (≈ 12.6 to 50.4 µM).

Compound `O=S(=O)(Nc1cccnc1NCCNc1ccc(Cl)cc1)c1ccc(Cl)cc1` [Example 77] returned a minimal inhibitory concentration (MIC) in the experiment on Helicobacter pylori of 6.25 to 12.5 µg/mL.

With `NCCN(c1cccnc1N1CCN(c2ccc(Cl)cc2)C(=O)C1=O)S(=O)(=O)c1ccc(Cl)cc1` [Example 92, 3-[N-(4-Chlorobenzenesulfonyl)-N-(2-aminoethyl)]amino-2-[4-(4-chlorophenyl)-2,3-dioxo-1-piperadino]pyridine], the MIC against Helicobacter pylori was above 100 µg/mL.

As to `O=S(=O)(c1ccc(Cl)cc1)N(CCN1CCNCC1)c1cccnc1NCCNc1ccc(Cl)cc1` [Example 97, 3-[N-(4-Chlorobenzenesulfonyl)-N-[2-(1-piperazinyl)ethyl]]amino-2-[2-(4-chlorophenyl)aminoethyl]aminopyridine], in experiment [1], the Suppression amounted to 81%. The minimal inhibitory concentration (MIC) against Helicobacter pylori lay within 25 to 100 µg/mL.

With `NCCN(c1cccnc1NCCOc1ccc(Cl)cc1)S(=O)(=O)c1ccc(Cl)cc1` [Example 106, 2-[2-(4-Chlorophenoxy)ethyl]amino-3-[N-(2-aminoethyl)-N-(4-chlorobenzenesulfonyl)]aminopyridine], in experiment [1], the median effective dose (ED50) (in general, the dose at which the effect has come halfway, by size or by number of responders) is on record as 8.4 mg/kg and the Suppression amounted to 98%.

On to `NCCN(c1cccnc1NCCN(c1ccc(Cl)cc1)S(=O)(=O)c1ccc(Cl)cc1)S(=O)(=O)c1ccc(Cl)cc1` [Example 111, 2-[2-[N-(4-Chlorophenyl)-N-(4-chlorobenzenesulfonyl)]aminoethyl]amino-3-[N-(2-aminoethyl)-N-(4-chlorobenzenesulfonyl)]aminopyridine], for which the Suppression in experiment [1] is recorded as 100%. In the experiment on Helicobacter pylori, this compound gave an MIC of 25 µg/mL (≈ 38.2 µM).

In the experiment with Helicobacter pylori, `COc1ccc(NCCNc2ncccc2N(CCN)S(=O)(=O)c2ccc(OC)cc2)cc1` [Example 112, 3-[N-(2-Aminoethyl)-N-(4-methoxybenzenesulfonyl)]amino-2-[2-(4-methoxyphenyl)aminoethyl]aminopyridine] displayed an MIC of 12.5 to 50 µg/mL.

In the case of `NCCN(c1cccnc1OCCNc1ccc(Cl)cc1)S(=O)(=O)c1ccc(Cl)cc1` [Example 113, 2-[2-(4-Chlorophenyl)aminoethoxy]-3-[N-(2-aminoethyl)-N-(4-chlorobenzenesulfonyl)]aminopyridine], in experiment [1], the Suppression is listed as 87%. The compound further displayed a minimal inhibitory concentration (MIC) with Helicobacter pylori of 25 to 50 µg/mL.

Consider `Cc1ccc(NCCNc2ncccc2N(CCN)S(=O)(=O)c2ccc(C)cc2)cc1` [Example 114, 3-[N-(2-Aminoethyl)-N-(p-toluenesulfonyl)]amino-2-[2-(p-tolyl)aminoethyl]aminopyridine], for which, in the experiment on Helicobacter pylori, the MIC fell in the range of 12.5 to 25 µg/mL.

Turning to `CCN(CCNc1ncccc1N(CCN)S(=O)(=O)c1ccc(Cl)cc1)c1ccc(Cl)cc1` [Example 116, 2-[2-[N-(4-Chlorophenyl)-N-ethyl]aminoethyl]amino-3-[N-(2-aminoethyl)-N-(4-chlorobenzenesulfonyl)]aminopyridine], in experiment [1], the Suppression worked out at 99%. In addition, the minimal inhibitory concentration (MIC) against Helicobacter pylori was in the range of 6.25 to 12.5 µg/mL.

For the compound `NCCN(c1ccccc1OCCNc1ccc(Cl)cc1)S(=O)(=O)c1ccc(Cl)cc1` [Example 122, 1-[2-(4-Chlorophenyl)aminoethoxy]-2-[N-(2-aminoethyl)-N-(4-chlorobenzenesulfonyl)]aminobenzene], in experiment [1], the Suppression stood at 99%. This compound also yielded a minimum inhibitory concentration (MIC) against Helicobacter pylori of 12.5 to 25 µg/mL.

`NCCN(c1cccnc1N1CCN(c2ccc(Cl)cc2)CC1)S(=O)(=O)c1ccc(Cl)cc1` [Example 136, 2-[4-(4-Chlorophenyl)-1-piperazino]-3-[N-(2-aminoethyl)-N-(4-chlorobenzenesulfonyl)]aminopyridine] registered a Suppression in experiment [1] of 80%. Further, the MIC in the experiment on Helicobacter pylori was in the range of 3.13 to 12.5 µg/mL.

In the experiment with Helicobacter pylori, `CN(C)CCN(c1cccnc1N1CCN(c2ccc(Cl)cc2)CC1)S(=O)(=O)c1ccc(Cl)cc1` [Example 138, 2-[4-(4-Chlorophenyl)-1-piperazino]-3-[N-(2-dimethylaminoethyl)-N-(4-chlorobenzenesulfonyl)]aminopyridine] registered an MIC of 3.13 to 12.5 µg/mL.
